Results published in ChEMBL document CHEMBL5523722, “Design, Synthesis, and Activity Evaluation of Novel Benzazole Bifunctional Antifungal Inhibitors with an LDH Carrier” (J Med Chem, 2024).
Converted amounts (≈) assume the structure as drawn.

Experiments:
Candida tropicalis = assay: microbe, parasite or virus in culture; conditions: ATCC 1369, 64 h
Description: Antifungal activity against Candida tropicalis ATCC 1369 assessed as inhibition of fungal growth incubated for 64 hrs by liquid medium dilution method

Aspergillus fumigatus = assay: microbe, parasite or virus in culture; conditions: KM8001, 64 h
Description: Antifungal activity against Aspergillus fumigatus KM8001 assessed as inhibition of fungal growth incubated for 64 hrs by liquid medium dilution method

Candida albicans [1] = assay: microbe, parasite or virus in culture; conditions: ATCC SC5314, 64 h
Description: Antifungal activity against Candida albicans ATCC SC5314 assessed as inhibition of fungal growth incubated for 64 hrs by liquid medium dilution method

Cryptococcus neoformans = assay: microbe, parasite or virus in culture; conditions: ZKCC 2209, 64 h
Description: Antifungal activity against Cryptococcus neoformans ZKCC 2209 assessed as inhibition of fungal growth incubated for 64 hrs by liquid medium dilution method

Nakaseomyces glabratus = assay: microbe, parasite or virus in culture; conditions: 64 h
Description: Antifungal activity against Candida glabrata assessed as inhibition of fungal growth incubated for 64 hrs by liquid medium dilution method

Candida albicans [2] = assay: microbe, parasite or virus in culture; conditions: CaR, 64 h
Description: Antifungal activity against fluconazole-resistant Candida albicans CaR assessed as inhibition of fungal growth incubated for 64 hrs by liquid medium dilution method

Candida albicans [3] = assay: microbe, parasite or virus in culture; conditions: Candida albicans, 904, 64 h
Description: Antifungal activity against fluconazole-resistant Candida albicans 904 assessed as inhibition of fungal growth incubated for 64 hrs by liquid medium dilution method

Candida albicans [4] = assay: microbe, parasite or virus in culture; conditions: Candida albicans, 632, 64 h
Description: Antifungal activity against fluconazole-resistant Candida albicans 632 assessed as inhibition of fungal growth incubated for 64 hrs by liquid medium dilution method

Candida albicans [5] = assay: microbe, parasite or virus in culture; conditions: Candida albicans, 901, 64 h
Description: Antifungal activity against fluconazole-resistant Candida albicans 901 assessed as inhibition of fungal growth incubated for 64 hrs by liquid medium dilution method

[6] = biological target: Lanosterol 14-alpha demethylase (Candida albicans (strain SC5314 / ATCC MYA-2876) (Yeast), UniProt P10613)
Description: Inhibition of candida albicans CYP51 14alpha demethylase activity incubated for 30 mins by HPLC analysis

Candida albicans [7] = assay: microbe, parasite or virus in culture; conditions: 17#, 64 h
Description: Antifungal activity against fluconazole-resistant Candida albicans 17# assessed as inhibition of fungal growth incubated for 64 hrs by liquid medium dilution method

Sequence of Lanosterol 14-alpha demethylase (P10613 whole entry): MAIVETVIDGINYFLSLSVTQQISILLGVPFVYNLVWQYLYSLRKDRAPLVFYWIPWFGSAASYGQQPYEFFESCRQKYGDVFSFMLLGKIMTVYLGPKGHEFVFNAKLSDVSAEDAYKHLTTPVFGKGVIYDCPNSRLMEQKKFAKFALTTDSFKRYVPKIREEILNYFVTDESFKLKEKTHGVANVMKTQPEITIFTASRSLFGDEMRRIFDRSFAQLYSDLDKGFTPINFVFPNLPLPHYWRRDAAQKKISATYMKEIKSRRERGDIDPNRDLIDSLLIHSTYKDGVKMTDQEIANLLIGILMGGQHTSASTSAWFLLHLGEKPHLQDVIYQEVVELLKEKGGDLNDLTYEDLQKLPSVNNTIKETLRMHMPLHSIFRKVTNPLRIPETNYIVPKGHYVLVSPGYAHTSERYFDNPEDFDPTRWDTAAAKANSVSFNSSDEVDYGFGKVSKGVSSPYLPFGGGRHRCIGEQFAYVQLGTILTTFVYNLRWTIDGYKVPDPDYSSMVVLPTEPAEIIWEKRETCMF

SMILES | MIC50 (Candida tropicalis) [µg/mL] | MIC50 (Aspergillus fumigatus) [µg/mL] | MIC50 (Candida albicans [1]) [µg/mL] | MIC50 (Cryptococcus neoformans) [µg/mL] | MIC50 (Nakaseomyces glabratus) [µg/mL] | MIC50 (Candida albicans [2]) [µg/mL] | MIC50 (Candida albicans [3]) [µg/mL] | MIC50 (Candida albicans [4]) [µg/mL] | MIC50 (Candida albicans [5]) [µg/mL] | IC50 [6] [nM] | MIC50 (Candida albicans [7]) [µg/mL]
O=C(NCC(Cc1ccccc1)Cn1cncn1)C1CCCN(Cc2ccc(-c3ccccc3)cc2)C1 (centres undefined) | 1 (≈ 2.03 µM) | 4 (≈ 8.1 µM) | 0.5 (≈ 1.01 µM) | 2 (≈ 4.05 µM) | 2 (≈ 4.05 µM) |  |  |  |  |  | 
Cc1c(CN2CCC(NCC(O)(Cn3cncn3)c3ccc(Cl)cc3)CC2)cccc1-c1ccccc1 (centres undefined) | 0.25 (≈ 0.484 µM) | 2 (≈ 3.88 µM) | 0.25 (≈ 0.484 µM) | 0.5 (≈ 0.969 µM) | 0.25 (≈ 0.484 µM) | 2 (≈ 3.88 µM) | 2 (≈ 3.88 µM) | 1 (≈ 1.94 µM) | 2 (≈ 3.88 µM) | 113 | 1 (≈ 1.94 µM)
Cc1c(CN2CCCC(C(=O)NCC(O)(Cn3ccnc3)c3ccc(Cl)cc3)C2)cccc1-c1ccccc1 (centres undefined) | 2 (≈ 3.68 µM) | ≥ 8 | 1 (≈ 1.84 µM) | 4 (≈ 7.36 µM) | 1 (≈ 1.84 µM) |  |  |  |  |  | 
Cc1c(CN2CCCC(C(=O)NCC(O)(Cn3cncn3)c3ccc(Cl)cc3)C2)cccc1-c1ccccc1 (centres undefined) | 0.25 (≈ 0.459 µM) | 4 (≈ 7.35 µM) | 0.25 (≈ 0.459 µM) | 1 (≈ 1.84 µM) | 0.5 (≈ 0.919 µM) | ≥ 8 | 4 (≈ 7.35 µM) | 4 (≈ 7.35 µM) | ≥ 8 | 256 | 2 (≈ 3.68 µM)
Cc1c(CN2CCC(CNCC(O)(Cn3cncn3)c3ccc(Cl)cc3)CC2)cccc1-c1ccccc1 (centres undefined) | 0.5 (≈ 0.943 µM) | ≥ 8 | 0.5 (≈ 0.943 µM) | 4 (≈ 7.55 µM) | 1 (≈ 1.89 µM) |  |  |  |  |  | 
CC(=O)N1CCN(c2ccc(OCC3COC(Cn4ccnc4)(c4ccc(Cl)cc4Cl)O3)cc2)CC1 (centres undefined) [KETOCONAZOLE] | 0.25 (≈ 0.47 µM) | 4 (≈ 7.53 µM) | 0.25 (≈ 0.47 µM) | 1 (≈ 1.88 µM) | 0.5 (≈ 0.941 µM) | 4 (≈ 7.53 µM) | ≥ 8 | ≥ 8 | 4 (≈ 7.53 µM) |  | 2 (≈ 3.76 µM)
Cc1c(CN2CCCC(C(=O)NCC(O)(Cn3ccnc3)c3ccc(Cl)cc3Cl)C2)cccc1-c1ccccc1 (centres undefined) | 0.5 (≈ 0.866 µM) | ≥ 8 | 0.5 (≈ 0.866 µM) | ≥ 8 | 1 (≈ 1.73 µM) |  |  |  |  |  | 
Cc1c(CN2CCC(NCC(O)(Cn3ccnc3)c3ccc(Cl)cc3Cl)CC2)cccc1-c1ccccc1 (centres undefined) | 0.5 (≈ 0.91 µM) | 4 (≈ 7.28 µM) | 0.125 (≈ 0.227 µM) | 1 (≈ 1.82 µM) | 0.5 (≈ 0.91 µM) | 4 (≈ 7.28 µM) | 2 (≈ 3.64 µM) | 2 (≈ 3.64 µM) | 4 (≈ 7.28 µM) | 157 | 2 (≈ 3.64 µM)
Cc1c(CN2CCCC(C(=O)NCC(O)(Cn3cncn3)c3ccc(Cl)cc3Cl)C2)cccc1-c1ccccc1 (centres undefined) | 2 (≈ 3.46 µM) | ≥ 8 | 0.5 (≈ 0.864 µM) | 4 (≈ 6.91 µM) | 0.5 (≈ 0.864 µM) |  |  |  |  |  | 
Cc1c(CN2CCC(CNCC(O)(Cn3cncn3)c3ccc(Cl)cc3Cl)CC2)cccc1-c1ccccc1 (centres undefined) | 2 (≈ 3.54 µM) | ≥ 8 | 2 (≈ 3.54 µM) | 2 (≈ 3.54 µM) | 1 (≈ 1.77 µM) |  |  |  |  |  | 
Cc1c(CN2CCC(NCC(O)(Cn3cncn3)c3ccc(Cl)cc3Cl)CC2)cccc1-c1ccccc1 (centres undefined) | 2 (≈ 3.63 µM) | 4 (≈ 7.27 µM) | 0.5 (≈ 0.908 µM) | 2 (≈ 3.63 µM) | 1 (≈ 1.82 µM) |  |  |  |  |  | 
Cc1c(CN2CCCC(C(=O)NCC(Cc3ccccc3)Cn3ccnc3)C2)cccc1-c1ccccc1 (centres undefined) | 1 (≈ 1.97 µM) | 4 (≈ 7.89 µM) | 0.5 (≈ 0.987 µM) | 2 (≈ 3.95 µM) | 2 (≈ 3.95 µM) |  |  |  |  |  | 
Cc1c(CN2CCCC(C(=O)NCC(Cc3ccccc3)Cn3cncn3)C2)cccc1-c1ccccc1 (centres undefined) | 0.5 (≈ 0.985 µM) | ≥ 8 | 0.25 (≈ 0.492 µM) | ≥ 8 | 0.5 (≈ 0.985 µM) |  |  |  |  |  | 
Cc1c(CN2CCC(CNCC(O)(Cn3ccnc3)c3ccc(Cl)cc3Cl)CC2)cccc1-c1ccccc1 (centres undefined) | 2 (≈ 3.55 µM) | 4 (≈ 7.1 µM) | 1 (≈ 1.77 µM) | 4 (≈ 7.1 µM) | 0.5 (≈ 0.887 µM) |  |  |  |  |  | 
OC(Cn1cncn1)(Cn1cncn1)c1ccc(F)cc1F [FLUCONAZOLE] | 0.5 (≈ 1.63 µM) | ≥ 8 | 0.5 (≈ 1.63 µM) | 2 (≈ 6.53 µM) | 0.5 (≈ 1.63 µM) | ≥ 8 | ≥ 8 | ≥ 8 | ≥ 8 | 98 | ≥ 8
Cc1c(CN2CCC(NCC(O)(Cn3ccnc3)c3ccc(Cl)cc3)CC2)cccc1-c1ccccc1 (centres undefined) | 0.5 (≈ 0.971 µM) | 4 (≈ 7.77 µM) | 0.25 (≈ 0.485 µM) | 2 (≈ 3.88 µM) | 1 (≈ 1.94 µM) |  |  |  |  |  | 
Cc1c(CN2CCC(CNCC(O)(Cn3ccnc3)c3ccc(Cl)cc3)CC2)cccc1-c1ccccc1 (centres undefined) | 1 (≈ 1.89 µM) | ≥ 8 | 1 (≈ 1.89 µM) | 2 (≈ 3.78 µM) | 0.5 (≈ 0.945 µM) |  |  |  |  |  | 
O=C(NCC(Cc1ccccc1)Cn1ccnc1)C1CCCN(Cc2ccc(-c3ccccc3)cc2)C1 (centres undefined) | 2 (≈ 4.06 µM) | ≥ 8 | 1 (≈ 2.03 µM) | 4 (≈ 8.12 µM) | 0.5 (≈ 1.01 µM) |  |  |  |  |  | 
